# In ChEMBL document CHEMBL4837183, “Antiproliferative Bufadienolides from the Bulbs of Drimia altissima” (2021):
# How the values were obtained:
# Assay type in all cases: functional
# MDA-MB-231 = experiment: Growth inhibition of human MDA-MB-231 cells measured after 48 hrs by SRB assay
# A549 = experiment: Growth inhibition of human A549 cells measured after 48 hrs by SRB assay
# UACC-257 = experiment: Growth inhibition of human UACC-257 cells measured after 48 hrs by SRB assay
# HOP-92 = experiment: Growth inhibition of human HOP-92 cells measured after 48 hrs by SRB assay
# UO-31 = experiment: Growth inhibition of human UO-31 cells measured after 48 hrs by SRB assay
# KM12 = experiment: Growth inhibition of human KM12 cells measured after 48 hrs by SRB assay
# SN12C = experiment: Growth inhibition of human SN12C cells measured after 48 hrs by SRB assay
# NCI-H460 = experiment: Growth inhibition of human NCI-H460 cells measured after 48 hrs by SRB assay
# CAKI-1 = experiment: Growth inhibition of human CAKI-1 cells measured after 48 hrs by SRB assay
# NCI-H226 = experiment: Growth inhibition of human NCI-H226 cells measured after 48 hrs by SRB assay
# HT-29 = experiment: Growth inhibition of human HT-29 cells measured after 48 hrs by SRB assay
# NCI-H522 = experiment: Growth inhibition of human NCI-H522 cells measured after 48 hrs by SRB assay
# SW-620 = experiment: Growth inhibition of human SW-620 cells measured after 48 hrs by SRB assay
# COLO 205 = experiment: Growth inhibition of human COLO 205 cells measured after 48 hrs by SRB assay
# SK-MEL-28 = experiment: Growth inhibition of human SK-MEL-28 cells measured after 48 hrs by SRB assay
# U-251 = experiment: Growth inhibition of human U-251 cells measured after 48 hrs by SRB assay
# OVCAR-3 = experiment: Growth inhibition of human OVCAR-3 cells measured after 48 hrs by SRB assay
# HCC 2998 = experiment: Growth inhibition of human HCC 2998 cells measured after 48 hrs by SRB assay
# OVCAR-5 = experiment: Growth inhibition of human OVCAR-5 cells measured after 48 hrs by SRB assay
# CCRF-CEM = experiment: Growth inhibition of human CCRF-CEM cells measured after 48 hrs by SRB assay
# MDA-MB-435 = experiment: Growth inhibition of human MDA-MB-435 cells measured after 48 hrs by SRB assay
# MDA-MB-468 = experiment: Growth inhibition of human MDA-MB-468 cells measured after 48 hrs by SRB assay
# OVCAR-8 = experiment: Growth inhibition of human OVCAR-8 cells measured after 48 hrs by SRB assay
# Hs-578T = experiment: Growth inhibition of human Hs-578T cells measured after 48 hrs by SRB assay
# NCI/ADR-RES = experiment: Growth inhibition of human NCI/ADR-RES cells measured after 48 hrs by SRB assay
# ACHN = experiment: Growth inhibition of human ACHN cells measured after 48 hrs by SRB assay
# MOLT-4 = experiment: Growth inhibition of human MOLT-4 cells measured after 48 hrs by SRB assay
# DU-145 = experiment: Growth inhibition of human DU-145 cells measured after 48 hrs by SRB assay
# NCI-H322M = experiment: Growth inhibition of human NCI-H322M cells measured after 48 hrs by SRB assay
# UACC-62 = experiment: Growth inhibition of human UACC-62 cells measured after 48 hrs by SRB assay
# HCT-15 = experiment: Growth inhibition of human HCT-15 cells measured after 48 hrs by SRB assay
# HCT-116 = experiment: Growth inhibition of human HCT-116 cells measured after 48 hrs by SRB assay
# 786-0 = experiment: Growth inhibition of human 786-0 cells measured after 48 hrs by SRB assay
# HL-60 = experiment: Growth inhibition of human HL-60 cells measured after 48 hrs by SRB assay
# SK-MEL-5 = experiment: Growth inhibition of human SK-MEL-5 cells measured after 48 hrs by SRB assay
# PC-3 = experiment: Growth inhibition of human PC-3 cells measured after 48 hrs by SRB assay
# HOP-62 = experiment: Growth inhibition of human HOP-62 cells measured after 48 hrs by SRB assay
# M14 = experiment: Growth inhibition of human M14 cells measured after 48 hrs by SRB assay
# SNB-75 = experiment: Growth inhibition of human SNB-75 cells measured after 48 hrs by SRB assay
# Malme-3M = experiment: Growth inhibition of human Malme-3M cells measured after 48 hrs by SRB assay
# SK-MEL-2 = experiment: Growth inhibition of human SK-MEL-2 cells measured after 48 hrs by SRB assay
# SF-539 = experiment: Growth inhibition of human SF-539 cells measured after 48 hrs by SRB assay
# SK-OV-3 = experiment: Growth inhibition of human SK-OV-3 cells measured after 48 hrs by SRB assay
# RXF 393 = experiment: Growth inhibition of human RXF 393 cells measured after 48 hrs by SRB assay
# IGROV-1 = experiment: Growth inhibition of human IGROV-1 cells measured after 48 hrs by SRB assay
# NCI-H23 = experiment: Growth inhibition of human NCI-H23 cells measured after 48 hrs by SRB assay
# SF-268 = experiment: Growth inhibition of human SF-268 cells measured after 48 hrs by SRB assay
# SF-295 = experiment: Growth inhibition of human SF-295 cells measured after 48 hrs by SRB assay
# SNB-19 = experiment: Growth inhibition of human SNB-19 cells measured after 48 hrs by SRB assay
# T47D = experiment: Growth inhibition of human T47D cells measured after 48 hrs by SRB assay
# TK-10 = experiment: Growth inhibition of human TK-10 cells measured after 48 hrs by SRB assay
# LOX IMVI = experiment: Growth inhibition of human LOX IMVI cells measured after 48 hrs by SRB assay
# BT-549 = experiment: Growth inhibition of human BT-549 cells measured after 48 hrs by SRB assay
# SR = experiment: Growth inhibition of human SR cells measured after 48 hrs by SRB assay
# K562 = experiment: Growth inhibition of human K562 cells measured after 48 hrs by SRB assay
# A498 = experiment: Growth inhibition of human A498 cells measured after 48 hrs by SRB assay
# MCF7 = experiment: Growth inhibition of human MCF7 cells measured after 48 hrs by SRB assay
smiles,measurement,setting,value
CC(=O)OC[C@H]1O[C@@H](O[C@@H]2C=C3CC[C@@H]4[C@H](C(=O)C[C@]5(C)[C@@H](c6ccc(=O)oc6)CC[C@]45O)[C@@]3(C)CC2)[C@H](OC(C)=O)[C@@H](OC(C)=O)[C@@H]1OC(C)=O,GI50,MDA-MB-231,> 10 µM
same,GI50,A549,4.78 µM
same,GI50,UACC-257,> 10 µM
same,GI50,HOP-92,> 10 µM
same,GI50,UO-31,6.06 µM
same,GI50,KM12,> 10 µM
same,GI50,SN12C,4.85 µM
same,GI50,NCI-H460,3.53 µM
same,GI50,CAKI-1,7.28 µM
same,GI50,NCI-H226,> 10 µM
same,GI50,HT-29,> 10 µM
same,GI50,NCI-H522,3.96 µM
same,GI50,SW-620,7.06 µM
same,GI50,COLO 205,> 10 µM
same,GI50,SK-MEL-28,> 10 µM
same,GI50,U-251,> 10 µM
same,GI50,OVCAR-3,4 µM
same,GI50,HCC 2998,> 10 µM
same,GI50,OVCAR-5,> 10 µM
same,GI50,CCRF-CEM,6.97 µM
same,GI50,MDA-MB-435,> 10 µM
same,GI50,MDA-MB-468,> 10 µM
same,GI50,OVCAR-8,> 10 µM
same,GI50,Hs-578T,3.79 µM
same,GI50,NCI/ADR-RES,> 10 µM
same,GI50,ACHN,2.32 µM
same,GI50,MOLT-4,5.12 µM
same,GI50,DU-145,6.1 µM
same,GI50,NCI-H322M,> 10 µM
same,GI50,UACC-62,> 10 µM
same,GI50,HCT-15,> 10 µM
same,GI50,HCT-116,4.44 µM
same,GI50,786-0,7.33 µM
same,GI50,HL-60,7.37 µM
same,GI50,SK-MEL-5,5.09 µM
same,GI50,PC-3,> 10 µM
same,GI50,HOP-62,6.88 µM
same,GI50,M14,> 10 µM
same,GI50,SNB-75,> 10 µM
same,GI50,Malme-3M,9.73 µM
same,GI50,SK-MEL-2,> 10 µM
same,GI50,SF-539,6.01 µM
same,GI50,SK-OV-3,> 10 µM
same,GI50,RXF 393,2.31 µM
same,GI50,IGROV-1,> 10 µM
same,GI50,NCI-H23,8.31 µM
same,GI50,SF-268,5.64 µM
same,GI50,SF-295,7.35 µM
same,GI50,SNB-19,> 10 µM
same,GI50,T47D,> 10 µM
same,GI50,TK-10,6.22 µM
same,GI50,LOX IMVI,> 10 µM
same,GI50,BT-549,5.01 µM
same,GI50,SR,> 10 µM
same,GI50,K562,> 10 µM
same,GI50,A498,2.89 µM
same,GI50,MCF7,7.71 µM
